According to patent US20140221499A1, “NOVEL RODENT CONTROL AGENTS AND USES THEREOF” (priority 2011, published 2014):

Assays:
mouse TAAR4 = biological target: T1, mouse TAAR4 (Mus musculus, UniProt Q5QD15); experiment: TAAR4 CRE-SEAP reporter gene assay in transfected HEK293 cells; assay type: cell-based; conditions: 10 μM
T1 construct: Full Taar coding regions were cloned into pcDNA3.1-(Invitrogen); expressed in transfected cells; host or cells: HEK293
T1 sequence (Q5QD15 1-347): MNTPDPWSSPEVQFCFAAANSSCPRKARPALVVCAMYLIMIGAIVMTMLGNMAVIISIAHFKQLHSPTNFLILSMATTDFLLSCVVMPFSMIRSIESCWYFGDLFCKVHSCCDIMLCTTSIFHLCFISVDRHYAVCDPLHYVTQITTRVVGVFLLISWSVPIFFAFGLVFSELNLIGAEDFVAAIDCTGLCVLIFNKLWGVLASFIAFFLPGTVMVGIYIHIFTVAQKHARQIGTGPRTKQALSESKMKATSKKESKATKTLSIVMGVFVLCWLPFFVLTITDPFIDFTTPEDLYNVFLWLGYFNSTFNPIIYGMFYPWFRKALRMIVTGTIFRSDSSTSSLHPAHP
Experimental: HEK293 cells were co-transfected with TAAR expression plasmids and a cAMPdependent reporter gene encoding secreted alkaline phosphatase (CRE-SEAP). Transfected cells were incubated with urine extracts from different mammalian species, and phosphatase activity was quantified with a fluorescent substrate as a reporter for TAAR activation.
Test urines were diluted in serum-free media containing penicillin G (100 Units/ml, Invitrogen) and streptomycin sulfate (100 mg/ml, Invitrogen). SEAP activity is measured as fluorescence resulting from dephosphorylation of a substrate, 4-methylumbelliferyl phosphate. Fluorescence values were obtained using an EnVision plate reader (Perkin Elmer) and are reported directly without normalization.

rTAAR7d = biological target: T2, rTAAR7d (Rattus norvegicus, UniProt Q923X5); experiment: CRE-SEAP reporter gene assay in HEK293 cells transfected with rTAAR7d; assay type: cell-based; set-up: Full Taar coding regions were cloned into pcDNA3.1; expressed in transfected cells; host or cells: HEK293; conditions: FIG. 11A, functional with or without 'Rho tag', EC50 ± s.e.m., 4-parameter Hill equation
T2 sequence (Q923X5 1-358): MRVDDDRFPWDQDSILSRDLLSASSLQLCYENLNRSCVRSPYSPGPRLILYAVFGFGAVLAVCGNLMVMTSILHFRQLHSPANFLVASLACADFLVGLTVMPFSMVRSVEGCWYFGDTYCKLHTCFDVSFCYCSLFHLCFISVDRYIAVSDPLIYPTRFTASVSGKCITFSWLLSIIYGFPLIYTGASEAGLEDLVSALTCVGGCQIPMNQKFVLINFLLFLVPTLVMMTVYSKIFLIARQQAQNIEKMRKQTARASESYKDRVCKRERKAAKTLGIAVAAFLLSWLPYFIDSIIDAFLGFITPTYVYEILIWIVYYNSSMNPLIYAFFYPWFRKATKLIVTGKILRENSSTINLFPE
Experimental: FIG. 11 illustrates the dose-dependent responses of TAARs to amines. HEK293 cells were cotransfected with plasmids encoding CRE-SEAP and rTAARs (a) or mTAARs (b), incubated with concentrations of ligands indicated, and assayed for reporter activity (triplicates±s.d.). EC50 values (±s.e.m, bottom right) were calculated using SigmaPlot (Systat Software) and a 4-parameter Hill equation.
The following mixes (10 μM of each indicated compounds) were tested for their ability to activate rat TAARs. Mix 1: butylamine, dibutylamine, hexylamine. Mix 2: 2-aminopentane, isoamylamine, isobutylamine, isopropylamine. Mix 3: N,N-dimethylcyclohexylamine, 1-methylindole, tryptamine, phenylethylamine. Mix 4: indole, 1-methylpyrrolidine, 1-methylpiperidine, pyrrolidine. […]
Full Taar coding regions were cloned into pcDNA3.1-(Invitrogen) with or without a 5′ DNA extension of 69 bp encoding the first 20 amino acids of bovine rhodopsin followed by a cloning linker ([…]). […] Fluorescence was measured on an EnVision plate reader (Perkin Elmer) and SEAP activity graphed as relative fluorescence of a phosphatase substrate.
Here, we set out to identify agonists for additional mouse and rat TAARs. […] Transfected cells were incubated with test chemicals, and phosphatase activity was quantified with a fluorescent substrate as a reporter for TAAR activation. […]

| SMILES | TAAR4 activation (mouse TAAR4) | EC50 (rTAAR7d) [µM] |
| --- | --- | --- |
| NCCc1ccccc1 [2-phenylethylamine] | activates TAAR4 |  |
| CN(C)C1CCCCC1 [N,N-DIMETHYLCYCLOHEXYLAMINE, N,N-dimethylcyclohexylamine] |  | 4.6 ± 1.1 |
